# Laboratory results as given in ChEMBL document CHEMBL1201862, “PubChem BioAssay data set” (2004).
#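 Following 48 hours of exposure in 96-well plates, responses at five concentrations were used to interpolate endpoints linearly. At the GI50, growth is halved.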 Calls of active or inactive are those of the source. No stated cut-off is given here; in the data, active = GI50 up to about 1.1 µM and inactive = higher.
# What was measured:
# Experiment in all cases: growth of human tumour cells (NCI), 48 h
# 786-0 = test system: 786-0
# LOX IMVI = test system: LOX IMVI
# MCF7 = test system: MCF7
# SK-MEL-2 = test system: SK-MEL-2
# HL-60 = test system: HL-60
# NCI-H226 = test system: NCI-H226
# A498 = test system: A498
# COLO 205 = test system: COLO 205
# PC-3 = test system: PC-3
# Hs-578T = test system: Hs-578T
# DU-145 = test system: DU-145
# MOLT-4 = test system: MOLT-4
# HCT-116 = test system: HCT-116
# SK-MEL-28 = test system: SK-MEL-28
# TK-10 = test system: TK-10
# HOP-62 = test system: HOP-62
# NCI-H460 = test system: NCI-H460
# HCT-15 = test system: HCT-15
# SF-295 = test system: SF-295
# M14 = test system: M14
Compound,GI50 (786-0),GI50 (LOX IMVI),GI50 (MCF7),GI50 (SK-MEL-2),GI50 (HL-60),GI50 (NCI-H226),GI50 (A498),GI50 (COLO 205),GI50 (PC-3),GI50 (Hs-578T),GI50 (DU-145),GI50 (MOLT-4),GI50 (HCT-116),GI50 (SK-MEL-28),GI50 (TK-10),GI50 (HOP-62),GI50 (NCI-H460),GI50 (HCT-15) [µM],GI50 (SF-295),GI50 (M14)
CC1(C)CC(Nc2ccc(Nc3ccccc3)cc2)CC(C)(C)N1,21.1 µM (inactive),24.6 µM (inactive),16.7 µM (inactive),23.8 µM (inactive),6.97 µM (inactive),17.1 µM (inactive),28.2 µM (inactive),16.8 µM (inactive),11.5 µM (inactive),25.4 µM (inactive),23 µM (inactive),18.1 µM (inactive),35.6 µM (inactive),18.2 µM (inactive),32.8 µM (inactive),50.2 µM (inactive),27.9 µM (inactive),33.8,68.2 µM (inactive),17.7 µM (inactive)
CC(=O)OC1(C)N=NC2(CCCCC2)O1 (stereo not given),> 100 µM (inactive),> 100 µM (inactive),> 100 µM (inactive),> 100 µM (inactive),18.9 µM (inactive),> 100 µM (inactive),> 100 µM (inactive),> 100 µM (inactive),> 100 µM (inactive),> 100 µM (inactive),> 100 µM (inactive),> 100 µM (inactive),> 100 µM (inactive),> 100 µM (inactive),> 100 µM (inactive),> 100 µM (inactive),> 100 µM (inactive),> 100,> 100 µM (inactive),> 100 µM (inactive)
COc1ccc(C2SCC(=O)N2c2ccc(-n3c(-c4ccccc4)nc4ccccc4c3=O)cc2)cc1 (stereo not given),> 100 µM (inactive),> 100 µM (inactive),98.4 µM (inactive),6.95 µM (inactive),> 100 µM (inactive),> 100 µM (inactive),> 100 µM (inactive),> 100 µM (inactive),42.1 µM (inactive),> 10 µM (inactive),> 100 µM (inactive),24.6 µM (inactive),> 100 µM (inactive),> 100 µM (inactive),> 100 µM (inactive),> 100 µM (inactive),> 100 µM (inactive),48.5,> 100 µM (inactive),> 100 µM (inactive)
O=C1C(c2cnc3ccccc3n2)=C(O)c2ccccc21,84.3 µM (inactive),47.3 µM (inactive),10.3 µM (inactive),> 100 µM (inactive),> 60.4 µM (inactive),> 100 µM (inactive),> 100 µM (inactive),43.2 µM (inactive),> 46.6 µM (inactive),> 57.7 µM (inactive),> 100 µM (inactive),> 70.5 µM (inactive),> 95.7 µM (inactive),> 82.4 µM (inactive),18.3 µM (inactive),43.4 µM (inactive),6.9 µM (inactive),1.16,> 64 µM (inactive),> 100 µM (inactive)
CC(C)[Si](OC1=C(C(=O)Nc2ccccc2Cl)CCCCC1)(C(C)C)C(C)C,> 100 µM (inactive),> 100 µM (inactive),> 100 µM (inactive),> 100 µM (inactive),1.97 µM (inactive),> 100 µM (inactive),> 100 µM (inactive),> 100 µM (inactive),> 100 µM (inactive),> 100 µM (inactive),> 100 µM (inactive),> 100 µM (inactive),> 100 µM (inactive),> 100 µM (inactive),> 100 µM (inactive),> 100 µM (inactive),> 100 µM (inactive),> 100,> 100 µM (inactive),> 100 µM (inactive)
CC1=NN(c2nc(N)nc(COCc3nc(N)nc(N4N=C(C)CC4(C)C)n3)n2)C(C)(C)C1,> 100 µM (inactive),> 100 µM (inactive),> 100 µM (inactive),> 100 µM (inactive),> 100 µM (inactive),> 100 µM (inactive),> 100 µM (inactive),> 100 µM (inactive),> 100 µM (inactive),> 100 µM (inactive),> 100 µM (inactive),> 100 µM (inactive),> 100 µM (inactive),> 100 µM (inactive),> 100 µM (inactive),> 100 µM (inactive),> 100 µM (inactive),> 100,> 100 µM (inactive),> 100 µM (inactive)
CCN(CC)CCC(=O)c1ccc(Sc2ccc(F)cc2)cc1,10.8 µM (inactive),17.4 µM (inactive),14.7 µM (inactive),21.1 µM (inactive),20.1 µM (inactive),16 µM (inactive),26.4 µM (inactive),21.1 µM (inactive),17.1 µM (inactive),15.8 µM (inactive),18.9 µM (inactive),15.1 µM (inactive),18.2 µM (inactive),17.8 µM (inactive),14.4 µM (inactive),18.7 µM (inactive),17.7 µM (inactive),17.3,19.3 µM (inactive),20.5 µM (inactive)
COc1ccc(C2CCc3nc4nc(N)nc(N)c4cc3C2)cc1 (stereo not given),3.13 µM (inactive),12.1 µM (inactive),15.2 µM (inactive),18.9 µM (inactive),54 µM (inactive),49.4 µM (inactive),22.2 µM (inactive),40.3 µM (inactive),85.1 µM (inactive),15.6 µM (inactive),39.7 µM (inactive),22.1 µM (inactive),26 µM (inactive),20.8 µM (inactive),8.34 µM (inactive),12.1 µM (inactive),40.6 µM (inactive),58.9,16.8 µM (inactive),86.9 µM (inactive)
O=C(CSc1ncccn1)N/N=C/c1ccccc1OCc1ccccc1,34.6 µM (inactive),17.4 µM (inactive),17.6 µM (inactive),21.3 µM (inactive),21.1 µM (inactive),20.6 µM (inactive),22.1 µM (inactive),19.2 µM (inactive),28.8 µM (inactive),37.8 µM (inactive),29.8 µM (inactive),20.2 µM (inactive),23 µM (inactive),36.6 µM (inactive),23.4 µM (inactive),28.2 µM (inactive),30.1 µM (inactive),17.3,21.6 µM (inactive),29.2 µM (inactive)
CC1=C(C(=O)NNC(=O)c2ccccc2)CC(C(=O)NNC(=O)c2ccccc2)=C(C)N1,> 100 µM (inactive),> 100 µM (inactive),> 100 µM (inactive),> 100 µM (inactive),> 100 µM (inactive),> 100 µM (inactive),> 100 µM (inactive),> 100 µM (inactive),> 100 µM (inactive),> 100 µM (inactive),> 100 µM (inactive),> 100 µM (inactive),> 100 µM (inactive),> 100 µM (inactive),> 100 µM (inactive),> 100 µM (inactive),92.9 µM (inactive),> 100,> 100 µM (inactive),> 100 µM (inactive)
Clc1ccc(Nc2nnc(CNc3ccc(-c4nnc(Nc5ccc(Cl)cc5)o4)cc3)o2)cc1,8 µM (inactive),6.95 µM (inactive),10.9 µM (inactive),18.3 µM (inactive),2.63 µM (inactive),20.9 µM (inactive),14.9 µM (inactive),19.8 µM (inactive),11.8 µM (inactive),17.8 µM (inactive),12.7 µM (inactive),6.35 µM (inactive),12.2 µM (inactive),17.2 µM (inactive),14 µM (inactive),18.9 µM (inactive),14.9 µM (inactive),14.9,19.9 µM (inactive),17.1 µM (inactive)
O=[N+]([O-])c1ccc(-[n+]2ccc3ccccc3c2)c([N+](=O)[O-])c1,1.73 µM (inactive),1.95 µM (inactive),1.88 µM (inactive),11.1 µM (inactive),1.54 µM (inactive),16.2 µM (inactive),14.8 µM (inactive),2.55 µM (inactive),3.93 µM (inactive),7.6 µM (inactive),14.6 µM (inactive),2.83 µM (inactive),2.35 µM (inactive),2.83 µM (inactive),1.85 µM (inactive),8.18 µM (inactive),10.9 µM (inactive),1.86,14.8 µM (inactive),4.55 µM (inactive)
O=C(O)CC1OCC=C2CN3CCC45C6=CC(=O)C(O)=C([N+](=O)[O-])C6=NC4C1C2CC35 (stereo not given),> 100 µM (inactive),40.8 µM (inactive),> 100 µM (inactive),> 100 µM (inactive),52 µM (inactive),> 100 µM (inactive),> 100 µM (inactive),> 100 µM (inactive),> 100 µM (inactive),> 100 µM (inactive),> 100 µM (inactive),89.5 µM (inactive),> 100 µM (inactive),> 100 µM (inactive),> 100 µM (inactive),> 100 µM (inactive),> 100 µM (inactive),> 100,> 100 µM (inactive),> 100 µM (inactive)
CC1(C)O[C@@H]2C[C@H]3[C@@H]4C[C@H](F)C5=CC(=O)C=C[C@]5(C)[C@@]4(F)[C@@H](O)C[C@]3(C)[C@]2(C(=O)CO)O1 [FLUOCINOLONE ACETONIDE],> 100 µM (inactive),> 100 µM (inactive),> 100 µM (inactive),> 100 µM (inactive),> 100 µM (inactive),> 85.1 µM (inactive),> 100 µM (inactive),> 100 µM (inactive),> 72.6 µM (inactive),> 100 µM (inactive),> 100 µM (inactive),> 83.8 µM (inactive),> 100 µM (inactive),> 100 µM (inactive),> 100 µM (inactive),> 100 µM (inactive),> 100 µM (inactive),> 100,> 100 µM (inactive),> 100 µM (inactive)
